Tested on: Mus musculus
Experiment: Anti-schizophrenic activity in mouse assessed inhibition of L-687414-induced hyperlocomotion at 30 mg/kg, ip pretreated for 15 mins followed by L-687414 addition measured at 5 mins interval for 30 mins relative to control
Type: functional

| SMILES | inhibition in vivo at 30 mg/kg |
| --- | --- |
| Cc1ncc(-c2ccc3c(c2)N(c2cncc(N4CCOCC4)n2)C(=O)C3(C)C)cn1 | 90% |
| Cc1ncc(-c2ccc3c(c2)N(c2cnc(-n4ccnc4C)cn2)C(=O)C3(C)C)cn1 | 96.3% |
| Cc1ncc(-c2ccc3c(c2)N(c2cnc(C)c(N4CCOC4=O)n2)C(=O)C3(C)C)cn1 | 89.7% |
| Cc1ncc(-c2ccc3c(c2)N(c2ccc4c(c2)N(C)C(=O)CO4)C(=O)C3(C)C)cn1 | 93.8% |
| Cc1ncc(-c2ccc3c(c2)N(c2cnc4c(c2)C(C)(C)C(=O)N4C)C(=O)C3(C)C)cn1 | 93.5% |
| Cc1ncc(-c2ccc3c(c2)N(c2cncc(N4CCOC4=O)n2)C(=O)C3(C)C)cn1 | 87.1% |
| Cc1ncc(-c2ccc3c(c2)N(c2cncc(N4CCCC4=O)n2)C(=O)C3(C)C)cn1 | 87.8% |
| Cc1ncc(-c2ccc3c(c2)N(c2cnc(C)c(N4CCOCC4)n2)C(=O)C3(C)C)cn1 | 88.8% |
| Cc1ncc(-c2ccc3c(c2)N(c2ccc4c(n2)N(C)C(=O)C4(C)C)C(=O)C3(C)C)cn1 | 99.5% |

— ChEMBL document CHEMBL4190369, “Indolinone Inhibitors of ENT1 for the Treatment of Schizophrenia” (ACS Med Chem Lett, 2017)
